Experimental data taken from patent US20200085828A1, “PHOSPHODIESTERASE INHIBITORS AND METHODS OF MICROBIAL TREATMENT” (Mavupharma, Inc., priority 2016, published 2020).

How the values were obtained:
[1] = test system: cGAMP activated THP-1 cells; test: PDE inhibitor library screen on cGAMP activated THP-1 cells, IFNβ ELISA; format: cell-based, human; conditions: 10 μM compound, suboptimal 2′,3′-cGAMP, 24 hours
Method: THP-1 Cell Activation and Screening of Test Compounds: • (a) THP-1 cells from bulk cultures were counted and suspended in RPMI 1640, 20% FBS, 2.5 mM L-alanyl-L-glutamine at a concentration of 5.5×10^6 cells/mL. The THP-1 cells were subsequently seeded into 96 well round bottom plates—volume of 180 μL/well (1×10^6 cells per well), and the plate was incubated for 1 hour at 37° C., 5% CO2. • (b) Test compounds comprising known phosphodiesterase inhibitors (PDEs), were screened in triplicate (N1, N2, N3) on THP-1 cells. For compound screening, test compounds were assayed at a final concentration of 10 μM. A 200 μM (0.2 mM) working solution of each compound was prepared by diluting 10 mM DMSO stock solutions of each compound in media at a dilution of 50:1 (1640, 20% FBS, 2.5 mM L-alanyl-L-glutamine). […]
(i) Cell culture supernatants were harvested by centrifuging the plates at 200×g for 10 minutes. Cell culture supernatants were then transferred to a clean plate and stored at −80° C. until ready to analyze for IFNβ levels. • (j) IFNβ levels in cell culture supernatants were determined by ELISA according to the manufacturer's instructions (VeriKine Human IFNβ Assay). • (k) The interpolated data was normalized to vehicle control, or unstimulated control, and analyzed.

human recombinant ENPP1 [2] = biological target: T1, human recombinant ENPP1 (Homo sapiens, UniProt P22413); test: ENPP1 inhibition with 2′,3′-cGAMP substrate (AMP-Glo assay); format: biochemical; conditions: for inhibition at 1 µM: at 1 μM compound; for inhibition at 1 µM / inhibition at 10 µM: read-out: Inhibition of ENPP1 with cGAMP as the Substrate; for inhibition at 10 µM: at 10 μM compound; for Ki: 20 μM 2′3′cGAMP, Ki from IC50 by Cheng-Prusoff, Km 15 μM
T1 sequence (P22413 1-925): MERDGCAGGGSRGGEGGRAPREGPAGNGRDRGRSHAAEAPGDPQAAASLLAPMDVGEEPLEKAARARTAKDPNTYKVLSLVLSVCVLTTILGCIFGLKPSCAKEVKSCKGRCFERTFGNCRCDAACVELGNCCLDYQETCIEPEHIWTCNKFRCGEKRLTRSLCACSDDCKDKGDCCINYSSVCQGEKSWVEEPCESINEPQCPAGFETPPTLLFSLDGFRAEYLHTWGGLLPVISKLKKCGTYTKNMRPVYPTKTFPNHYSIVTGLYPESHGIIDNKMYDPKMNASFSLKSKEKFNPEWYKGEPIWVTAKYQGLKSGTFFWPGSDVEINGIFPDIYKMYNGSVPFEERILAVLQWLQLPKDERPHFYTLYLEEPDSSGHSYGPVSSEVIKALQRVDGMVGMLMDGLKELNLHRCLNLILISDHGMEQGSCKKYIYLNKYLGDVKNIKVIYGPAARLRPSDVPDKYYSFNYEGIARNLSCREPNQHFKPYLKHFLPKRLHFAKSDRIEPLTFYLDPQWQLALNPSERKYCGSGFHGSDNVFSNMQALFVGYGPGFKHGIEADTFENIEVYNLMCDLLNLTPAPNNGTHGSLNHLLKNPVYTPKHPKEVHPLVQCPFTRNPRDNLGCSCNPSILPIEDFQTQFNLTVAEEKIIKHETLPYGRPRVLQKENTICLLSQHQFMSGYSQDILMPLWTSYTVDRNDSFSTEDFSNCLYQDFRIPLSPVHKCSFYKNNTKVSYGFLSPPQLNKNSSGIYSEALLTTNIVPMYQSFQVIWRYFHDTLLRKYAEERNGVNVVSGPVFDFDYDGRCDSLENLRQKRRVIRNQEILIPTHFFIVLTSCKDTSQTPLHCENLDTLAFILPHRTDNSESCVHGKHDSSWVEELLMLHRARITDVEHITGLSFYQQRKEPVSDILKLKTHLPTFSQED
Method: The AMP-Glo™ Assay Kit contains two reagents that are added sequentially. The first converts the 5′-AMP produced in the reaction to 5′ADP. The second converts the 5′-ADP to 5′ATP and reacts the 5′-ATP with the luciferase/luciferin pair to produce the luminescence signal. […] Inhibitors are added at final concentrations ranging between 10 μM and 30 pM depending on the compound. Duplicate wells are run at each inhibitor concentration. The final assay volume is 18 μL and human recombinant ENPP1 is present at 5 ng/well. The assay is initiated by the addition of substrate (20 μM 2′3′cGAMP final concentration), and incubated for 30 minutes at 37° C. To stop the reaction, 12 μl of AMP-Glo reagent I is added and the plate is incubated for 60 minutes at room temperature. 25 μl of AMP-detection reagent is then added and the wells are again incubated for 60 minutes at room temperature. The luminescence signal is then measured using a plate-reading luminometer. Each assay plate also includes wells with no enzyme added (MIN OD) and wells with no inhibitor added (MAX OD). The percent inhibition of ENPP1 for each sample is then calculated as: […]
IC50 values of compounds were calculated by entering the percent inhibition values into a sigmoidal variable slope nonlinear regression model in GraphPad Prism® software. IC50 values were converted to Ki values using the Cheng-Prusoff equation2 where the Km was 15 μM, based on internal determinations.

human recombinant ENPP1 [3] = biological target: T1, human recombinant ENPP1; test: ENPP1 inhibition with AMP-pNP (ATP analog) substrate, absorbance at 405 nm; format: biochemical; conditions: 300 μM AMP-pNP; Ki from IC50 by Cheng-Prusoff, Km 151 μM
Method: The ENPP1 assay with AMP-pNP substrate is conducted in a buffer containing 50 mM Tris-HCl (pH 8.5)/250 mM NaCl/0.5 mM CaCl2/1 μM ZnCl2/0.1% DMSO. Inhibitors are added at final concentrations ranging between 10 μM and 30 pM depending on the compound. Duplicate wells are run at each inhibitor concentration. The final assay volume is 40 μL and human recombinant ENPP1 is present at 60 ng/well. The assay is initiated by the addition of substrate (300 μM AMP-pNP final concentration), and incubated for 20 minutes at 37° C. […] Each assay plate also includes wells with no enzyme added (MIN OD) and wells with no inhibitor added (MAX OD). The percent inhibition of ENPP1 for each sample is then calculated as: […]
IC50 values of compounds were calculated by entering the percent inhibition values into a sigmoidal variable slope nonlinear regression model in GraphPad Prism® software.

Row | Structure (SMILES) | Substrate Selectivity Ki Ratio AMP-pNP/2′3′cGAMP (human recombinant ENPP1 [2]; Ki (AMP-pNP)/Ki (2′3′-cGAMP)) | Ki (human recombinant ENPP1 [2]) [nM] | other results
1 | O=c1cc(-c2ccc(O)c(O)c2)oc2cc(O)cc(O)c12 [Compound 1] |  |  | augmentation of cGAMP mediated IFNβ production [1]: augmentation of cGAMP mediated IFNβ production
2 | COc1ccc(NC(=O)CSc2nc3c(N)ncnc3[nH]2)cc1OC [Compound 2] |  |  | inhibition at 1 µM (human recombinant ENPP1 [2]): 99%; inhibition at 10 µM (human recombinant ENPP1 [2]): 99%
3 | COc1cc2ncnc(N3CCC(CCNS(N)(=O)=O)CC3)c2cc1OC [Compound 3] |  |  | inhibition at 1 µM (human recombinant ENPP1 [2]): 99%; inhibition at 10 µM (human recombinant ENPP1 [2]): 99%; augmentation of cGAMP mediated IFNβ production [1]: augmentation of cGAMP mediated IFNβ production
4 | COc1ccc(CC(=O)CCC2=Nc3c(N)ccnc3C2)cc1OC [Compound 4] | >37500 |  | selectivity for inhibition of cGAMP over AMP-pNP hydrolysis by ENPP1 (human recombinant ENPP1 [2]; Ki (AMP-pNP)/Ki (2′3′-cGAMP)): > 37,500 fold
5 | COc1cc2ncnc(N3CCC(CCN)CC3)c2cc1OC [Compound 5] |  | 46.7 | 
6 | COc1cc2nccc(Oc3ccc(CS(N)(=O)=O)cc3)c2cc1OC [Compound 6] | >325 |  | 
7 | Cn1cnc2cccc(N3CCC(CCCS(C)(=O)=O)CC3)c21 [Compound 9] | >128 |  | 
8 | COc1cc2nccc(Oc3ccc(NS(=O)(=O)c4ccccc4)cc3)c2cc1OC [Compound 25] |  | 44 | 

Further lines, with some results ahead:

Row | Substrate Selectivity Ki Ratio AMP-pNP/2′3′cGAMP (human recombinant ENPP1 [2]; Ki (AMP-pNP)/Ki (2′3′-cGAMP)) | Ki (human recombinant ENPP1 [2]) [nM] | Structure (SMILES) | other results
9 |  | 336 | CCN(C)S(=O)(=O)NCCC1CCN(c2ncnc3cc(OC)c(OC)cc23)CC1 [Compound 12] | 
10 |  | 29.1 | COc1cc2nccc(Nc3ccc(NS(=O)(=O)c4ccccc4)cc3)c2cc1OC [Compound 14] | Ki (human recombinant ENPP1 [3]): 1830 nM
11 |  | 27.1 | COc1cc2ncn(-c3ccc(CNS(N)(=O)=O)cc3)c2cc1OC [Compound 16] | Ki (human recombinant ENPP1 [3]): 1460 nM
12 |  | 1.8 | COc1cc2ncnc(-c3ccc4c(c3)CN(S(N)(=O)=O)CC4)c2cc1OC [Compound 21] | Ki (human recombinant ENPP1 [3]): 65.2 nM
13 | >23.9 |  | COc1cc2nc(-c3cccnc3)nc(N3CCC(CCNS(C)(=O)=O)CC3)c2cc1OC [Compound 23] | 
14 | 18.7 |  | COc1cc2ncnc(N3CCC4(CC3)CN(S(N)(=O)=O)C4)c2cc1OC [Compound 24] | 
